These cell lines were tested with COc1cc(Nc2ncc(F)c(Nc3ccc4c(n3)NC(=O)C(C)(C)O4)n2)cc(OC)c1OC [R406] + COc1cc2c(Oc3ccc(NC(=O)C4(C(=O)Nc5ccc(F)cc5)CC4)cc3F)ccnc2cc1OCCCN1CCOCC1 [Foretinib] (partner 0.25 µM) (assay: relative viability (nuclei count vs DMSO), 5 days (fraction); higher = more cells survive). Settings: first compound 8 µM.
Summary of the method: (§1)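 Lung cancer cell lines were seeded in 1536-well plates and dosed by pin tool the next day, with either a single drug or a fixed anchor-drug dose combined with five library-drug doses (not always all listed) spaced in √10 steps. Five days later, one step fixed the cells and stained their nuclei (final 0.05% Triton X-100, 1% formaldehyde, 1 ug/ml Hoechst), and nuclei were counted on 4× images. Relative viability is the nuclei count in treated wells divided by the count in vehicle wells, and each value is the median of duplicate plates.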
With CAL-12T the relative viability was 0.812.
Work on NCI-H1651 yielded a relative viability of 0.679.
Cell Line EPLC-272H has a relative viability of 0.126.
For NCI-H1355, the relative viability was 0.691.
For NCI-H3122, the relative viability was 0.887.
NCI-H1437 was tested, and the relative viability was 1.34.

The cell lines below were run with COc1cc(Nc2ncc(F)c(Nc3ccc4c(n3)NC(=O)C(C)(C)O4)n2)cc(OC)c1OC [R406] + Cc1cc(Nc2cc(N3CCN(C)CC3)nc(Sc3ccc(NC(=O)C4CC4)cc3)n2)n[nH]1 [Tozasertib] (partner 0.1 µM) in the same assay as above. Settings: first compound 0.08 µM.
Summary of the method: as §1
With LOU-NH91 the relative viability was 0.723.
NCI-H1793 gave a relative viability of 0.333.
With NCI-H2405 the relative viability was 0.76.
HOP-62 gave a relative viability of 0.356.
LU99A gave a relative viability of 0.274.
Work on BEN yielded a relative viability of 0.522.
HARA gave a relative viability of 0.115.
For HCC-78, the relative viability was 0.513.
For NCI-H322M, the relative viability was 0.496.
For LCLC-97TM1, the relative viability was 0.217.
A-427 showed a relative viability of 0.254.
NCI-H460 showed a relative viability of 0.493.
For NCI-H727, the relative viability was 0.586.
Work on NCI-H1734 yielded a relative viability of 0.294.
NCI-H2347 gave a relative viability of 0.537.
NCI-H1395 showed a relative viability of 0.714.
Work on 201T yielded a relative viability of 1.02.
NCI-H1915 gave a relative viability of 0.459.
HCC-827 gave a relative viability of 0.421.
Cell Line LXF-289 has a relative viability of 0.192.
In the case of NCI-H23, the relative viability is reported as 0.35.
Cell Line NCI-H650 has a relative viability of 0.701.
CAL-12T was tested, and the relative viability was 0.312.
Cell Line NCI-H1651 has a relative viability of 0.719.
With EPLC-272H the relative viability was 0.206.
Cell Line NCI-H1355 has a relative viability of 0.572.
NCI-H3122 was tested, and the relative viability was 0.491.
With NCI-H1437 the relative viability was 0.403.

Same assay, conditions: first compound 0.253 µM
LOU-NH91 showed a relative viability of 0.764.
NCI-H1793 showed a relative viability of 0.353.
NCI-H2405 gave a relative viability of 0.845.
HOP-62 showed a relative viability of 0.456.
LU99A was tested, and the relative viability was 0.312.
BEN was tested, and the relative viability was 0.478.
Cell Line HARA has a relative viability of 0.127.
In the case of HCC-78, the relative viability is reported as 0.432.
NCI-H322M was tested, and the relative viability was 0.465.
LCLC-97TM1 showed a relative viability of 0.318.
For A-427, the relative viability was 0.223.
NCI-H460 showed a relative viability of 0.486.
With NCI-H727 the relative viability was 0.566.
With NCI-H1734 the relative viability was 0.272.
NCI-H2347 was tested, and the relative viability was 0.671.
In the case of NCI-H1395, the relative viability is reported as 0.77.
Work on 201T yielded a relative viability of 1.
In the case of NCI-H1915, the relative viability is reported as 0.474.
HCC-827 was tested, and the relative viability was 0.463.
LXF-289 was tested, and the relative viability was 0.178.
Work on NCI-H23 yielded a relative viability of 0.394.
NCI-H650 gave a relative viability of 0.885.
CAL-12T gave a relative viability of 0.366.
For NCI-H1651, the relative viability was 0.865.
Cell Line EPLC-272H has a relative viability of 0.242.
NCI-H1355 gave a relative viability of 0.575.
For NCI-H3122, the relative viability was 0.415.
NCI-H1437 showed a relative viability of 0.433.

Same assay, conditions: first compound 0.8 µM
LOU-NH91 gave a relative viability of 0.644.
Cell Line NCI-H1793 has a relative viability of 0.389.
NCI-H2405 gave a relative viability of 0.82.
HOP-62 showed a relative viability of 0.362.
LU99A gave a relative viability of 0.246.
BEN was tested, and the relative viability was 0.499.
HARA gave a relative viability of 0.13.
In the case of HCC-78, the relative viability is reported as 0.563.
NCI-H322M gave a relative viability of 0.489.
LCLC-97TM1 showed a relative viability of 0.209.
A-427 showed a relative viability of 0.188.
For NCI-H460, the relative viability was 0.481.
With NCI-H727 the relative viability was 0.694.
NCI-H1734 was tested, and the relative viability was 0.262.
NCI-H2347 was tested, and the relative viability was 0.682.
Cell Line NCI-H1395 has a relative viability of 0.734.
With 201T the relative viability was 0.986.
NCI-H1915 was tested, and the relative viability was 0.521.
For HCC-827, the relative viability was 0.45.
With LXF-289 the relative viability was 0.197.
For NCI-H23, the relative viability was 0.511.
With NCI-H650 the relative viability was 0.699.
With CAL-12T the relative viability was 0.324.
NCI-H1651 showed a relative viability of 0.641.
Work on EPLC-272H yielded a relative viability of 0.403.
For NCI-H1355, the relative viability was 0.558.
NCI-H3122 showed a relative viability of 0.34.
Work on NCI-H1437 yielded a relative viability of 0.409.

Same assay, conditions: first compound 2.53 µM
With LOU-NH91 the relative viability was 0.472.
NCI-H1793 showed a relative viability of 0.155.
For NCI-H2405, the relative viability was 0.804.
Work on HOP-62 yielded a relative viability of 0.366.
In the case of LU99A, the relative viability is reported as 0.313.
BEN gave a relative viability of 0.569.
Cell Line HARA has a relative viability of 0.155.
Work on HCC-78 yielded a relative viability of 0.404.
Cell Line NCI-H322M has a relative viability of 0.343.
LCLC-97TM1 was tested, and the relative viability was 0.216.
A-427 gave a relative viability of 0.185.
NCI-H460 gave a relative viability of 0.344.
In the case of NCI-H727, the relative viability is reported as 0.594.
NCI-H1734 was tested, and the relative viability was 0.26.
NCI-H2347 gave a relative viability of 0.458.
NCI-H1395 was tested, and the relative viability was 0.647.
Work on 201T yielded a relative viability of 0.939.
With HCC-827 the relative viability was 0.386.
With LXF-289 the relative viability was 0.183.
NCI-H650 was tested, and the relative viability was 0.614.
With CAL-12T the relative viability was 0.255.
NCI-H1651 showed a relative viability of 0.592.
Cell Line EPLC-272H has a relative viability of 0.177.
NCI-H1355 showed a relative viability of 0.572.
NCI-H3122 was tested, and the relative viability was 0.328.
NCI-H1437 showed a relative viability of 0.417.

Same assay, conditions: first compound 8 µM
With LOU-NH91 the relative viability was 0.466.
Work on NCI-H1793 yielded a relative viability of 0.109.
NCI-H2405 was tested, and the relative viability was 0.542.
HOP-62 gave a relative viability of 0.554.
Cell Line LU99A has a relative viability of 0.265.
With BEN the relative viability was 0.543.
HARA showed a relative viability of 0.123.
For HCC-78, the relative viability was 0.417.
NCI-H322M gave a relative viability of 0.283.
LCLC-97TM1 gave a relative viability of 0.226.
A-427 gave a relative viability of 0.169.
NCI-H460 gave a relative viability of 0.264.
Cell Line NCI-H727 has a relative viability of 0.433.
For NCI-H1734, the relative viability was 0.206.
NCI-H2347 showed a relative viability of 0.347.
In the case of NCI-H1395, the relative viability is reported as 0.519.
